{
  "source": "ChEMBL document CHEMBL4823309",
  "about": "“The Potential of c-KIT Kinase inhibitors in Cancer Treatment” (ACS Med Chem Lett, 2021)",
  "data": [
    {"assay": "Inhibition of C-KIT V654A/560-576 deletion mutant in human GIST-430/654 cells assessed as reduction in c-Kit autophosphorylation at […] residue incubated for 45 mins by Luminex bead based assay", "assay_type": "cell-based", "conditions": "GIST-430/654, 0.75 h", "units": {"IC50": "nM"}, "values": [
      {"smiles": "Cn1cc(-c2ccc(CNc3cc(-c4cnc5cc(OC6CCOC6)ccn45)ncn3)cc2)cn1", "note": "(configuration not stated)", "IC50": 270},
      {"smiles": "CNC1CN(c2ccn3c(-c4cc(NCc5ccc(-c6cnn(C)c6)cc5)ncn4)cnc3c2)C1", "IC50": 140},
      {"smiles": "Cn1ncc(-c2ccc(CNc3cc(-c4cnc5cc(OCCCN6CCCC6)ccn45)ncn3)cc2)n1", "IC50": 45},
      {"smiles": "Cn1cc(-c2ccc(CNc3cc(-c4cnc5cc(CCN6CCN(C7COC7)CC6)ccn45)ncn3)cc2)cn1", "IC50": 330},
      {"smiles": "Cc1nc(-c2ccc(CNc3cc(-c4cnc5cc(OCCO)ccn45)ncn3)cc2)co1", "IC50": 74},
      {"smiles": "Cn1cc(-c2ccc(CNc3cc(-c4cnc5cc(OCCN6CCC[C@@H]7OCC[C@@H]76)ccn45)ncn3)cc2)cn1", "IC50": 100},
      {"smiles": "CN1CC(COc2ccn3c(-c4cc(NCc5ccc(-c6cnn(C)c6)cc5)ncn4)cnc3c2)C1", "IC50": 61},
      {"smiles": "Cn1ncc(-c2ccc(CNc3cc(-c4cnc5cc(OCCN6CC7(COC7)C6)ccn45)ncn3)cc2)n1", "IC50": 40},
      {"smiles": "COCCN1CCC(COc2ccn3c(-c4cc(NCc5ccc(-c6cnn(C)n6)cc5)ncn4)cnc3c2)CC1", "IC50": 39},
      {"smiles": "COc1ccn2c(-c3cc(NCc4ccc(-c5cnn(C)n5)cc4)ncn3)cnc2c1", "IC50": 78},
      {"smiles": "COc1ccn2c(-c3cc(NCc4ccc(-c5cnn(C)c5)cc4)ncn3)cnc2c1", "IC50": 55},
      {"smiles": "c1ccn2c(-c3cc(NCc4ccc(-n5cccn5)cc4)ncn3)cnc2c1", "IC50": 190}
    ]}
  ]
}
